The values below are quoted from earlier work in US10583101B2 (EMCURE PHARMACEUTICALS LIMITED, priority 2016, dated 2020).

As for `O=NN(CCCl)C(=O)NCCCl` [Carmustine, 1,3-bis (2-chloroethyl)-1-nitrosourea], the “solubility in alcohol and lipids” value (alcohol and lipids) was “highly soluble in alcohol and lipids”. For the same molecule, under “water”, the solubility in water entry is on record as “poorly soluble in water”.
